Reference: patent publication US8802597B2, “Herbicidal pyrimidines” (E I du Pont de Nemours and Company, priority 2003, dated 2014)
Where two headings read alike, the source gives them in different places.

Key:
Format in all cases: in vivo
[1] = tested on: bermudagrass (Cynodon dactylon); experiment: Test C pre/postemergence; settings: Cynodon dactylon; for pest or weed control at 31 g/ha: 31 g ai/ha; for pest or weed control at 62 g/ha: 62 g ai/ha; for pest or weed control at 125 g/ha: 125 g ai/ha; for pest or weed control at 250 g/ha: 250 g ai/ha
In short: (§1)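 Visual injury ratings, 0 (no effect) to 100 (complete control), made 12 to 14 days after treatment by comparison with untreated controls. Greenhouse plants received test chemical in a surfactant-containing non-phytotoxic solvent, either preemergence on planted seeds or postemergence at the 1- to 4-leaf stage.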

[2] = tested on: pigweed (Amaranthus retroflexus); experiment: Test C pre/postemergence; settings: Amaranthus retroflexus; for pest or weed control at 31 g/ha: 31 g ai/ha; for pest or weed control at 62 g/ha: 62 g ai/ha; for pest or weed control at 125 g/ha: 125 g ai/ha; for pest or weed control at 250 g/ha: 250 g ai/ha
In short: as §1

[3] = tested on: velvetleaf (Abutilon theophrasti); experiment: Test C pre/postemergence; settings: Abutilon theophrasti; for pest or weed control at 31 g/ha: 31 g ai/ha; for pest or weed control at 62 g/ha: 62 g ai/ha; for pest or weed control at 125 g/ha: 125 g ai/ha; for pest or weed control at 250 g/ha: 250 g ai/ha
In short: as §1

[4] = tested on: goosegrass (Eleusine indica); experiment: Test C pre/postemergence; settings: Eleusine indica; for pest or weed control at 31 g/ha: 31 g ai/ha; for pest or weed control at 62 g/ha: 62 g ai/ha; for pest or weed control at 125 g/ha: 125 g ai/ha; for pest or weed control at 250 g/ha: 250 g ai/ha
In short: as §1

[5] = tested on: common ragweed (Ambrosia elatior); experiment: Test C pre/postemergence; settings: Ambrosia artemisiifolia; for pest or weed control at 31 g/ha: 31 g ai/ha; for pest or weed control at 62 g/ha: 62 g ai/ha; for pest or weed control at 125 g/ha: 125 g ai/ha; for pest or weed control at 250 g/ha: 250 g ai/ha
In short: as §1

[6] = tested on: woolly cupgrass (Eriochloa villosa); experiment: Test C pre/postemergence; settings: Eriochloa villosa; for pest or weed control at 31 g/ha: 31 g ai/ha; for pest or weed control at 62 g/ha: 62 g ai/ha; for pest or weed control at 125 g/ha: 125 g ai/ha; for pest or weed control at 250 g/ha: 250 g ai/ha
In short: as §1

[7] = tested on: yellow nutsedge (Cyperus esculentus); experiment: Test C pre/postemergence; settings: Cyperus; for pest or weed control at 31 g/ha: 31 g ai/ha; for pest or weed control at 62 g/ha: 62 g ai/ha; for pest or weed control at 125 g/ha: 125 g ai/ha; for pest or weed control at 250 g/ha: 250 g ai/ha
In short: as §1

[8] = tested on: chickweed (Stellaria media); experiment: Test C postemergence; settings: Stellaria media, post-emergence
In short: as §1

[9] = post-emergence, Postemergence, scale 0 to 100 (0 no effect, 100 complete control), read-out: Bermudagrass plant response rating
[10] = pre-emergence, Preemergence, scale 0 to 100, 0 no effect, 100 complete control, read-out: Plant response rating, Bermudagrass
[11] = pre-emergence, Preemergence, scale 0 to 100, read-out: Plant response rating, Bermudagrass
[12] = post-emergence, Postemergence, scale 0 to 100 (0 no effect, 100 complete control), read-out: Pigweed plant response rating
[13] = pre-emergence, Preemergence, scale 0 to 100, 0 no effect, 100 complete control, read-out: Plant response rating, Pigweed
[14] = pre-emergence, Preemergence, scale 0 to 100, read-out: Plant response rating, Pigweed
[15] = post-emergence, Postemergence, scale 0 to 100 (0 no effect, 100 complete control), read-out: Velvetleaf plant response rating
[16] = pre-emergence, Preemergence, scale 0 to 100, 0 no effect, 100 complete control, read-out: Plant response rating, Velvetleaf
[17] = pre-emergence, Preemergence, scale 0 to 100, read-out: Plant response rating, Velvetleaf
[18] = post-emergence, Postemergence, scale 0 to 100 (0 no effect, 100 complete control), read-out: Goosegrass plant response rating
[19] = pre-emergence, Preemergence, scale 0 to 100, 0 no effect, 100 complete control, read-out: Plant response rating, Goosegrass
[20] = pre-emergence, Preemergence, scale 0 to 100, read-out: Plant response rating, Goosegrass
[21] = post-emergence, Postemergence, scale 0 to 100 (0 no effect, 100 complete control), read-out: Ragweed plant response rating
[22] = pre-emergence, Preemergence, scale 0 to 100, 0 no effect, 100 complete control, read-out: Plant response rating, Ragweed
[23] = pre-emergence, Preemergence, scale 0 to 100, read-out: Plant response rating, Ragweed
[24] = post-emergence, Postemergence, scale 0 to 100 (0 no effect, 100 complete control), read-out: Cupgrass, Woolly plant response rating
[25] = pre-emergence, Preemergence, scale 0 to 100, 0 no effect, 100 complete control, read-out: Plant response rating, Cupgrass, Woolly
[26] = pre-emergence, Preemergence, scale 0 to 100, read-out: Plant response rating, Cupgrass, Woolly
[27] = post-emergence, Postemergence, scale 0 to 100 (0 no effect, 100 complete control), read-out: Nutsedge, Yellow plant response rating
[28] = pre-emergence, Preemergence, scale 0 to 100, 0 no effect, 100 complete control, read-out: Plant response rating, Nutsedge, Yellow
[29] = pre-emergence, Preemergence, scale 0 to 100, read-out: Plant response rating, Nutsedge, Yellow

## CCOC(=O)c1nc(C2CC2)nc(N)c1F [Compound 30]
[1]; post-emergence, Postemergence, read-out: Plant response rating (scale of 0 to 100), Bermudagrass
  pest or weed control at 31 g/ha: 0%
[1]; [9]
  pest or weed control at 62 g/ha: 0%
  pest or weed control at 125 g/ha: 5%
[1]; post-emergence, Postemergence, scale 0 to 100, read-out: Plant response rating, Bermudagrass
  pest or weed control at 250 g/ha: 5%
[1]; [10]
  pest or weed control at 31 g/ha: 0%
  pest or weed control at 62 g/ha: 0%
[1]; [11]
  pest or weed control at 125 g/ha: 0%
  pest or weed control at 250 g/ha: 0%
[2]; post-emergence, Postemergence, read-out: Plant response rating (scale of 0 to 100), Pigweed
  pest or weed control at 31 g/ha: 60%
[2]; [12]
  pest or weed control at 62 g/ha: 70%
  pest or weed control at 125 g/ha: 80%
[2]; post-emergence, Postemergence, scale 0 to 100, read-out: Plant response rating, Pigweed
  pest or weed control at 250 g/ha: 90%
[2]; [13]
  pest or weed control at 31 g/ha: 0%
  pest or weed control at 62 g/ha: 30%
[2]; [14]
  pest or weed control at 125 g/ha: 80%
  pest or weed control at 250 g/ha: 90%
[3]; post-emergence, Postemergence, read-out: Plant response rating (scale of 0 to 100), Velvetleaf
  pest or weed control at 31 g/ha: 10%
[3]; [15]
  pest or weed control at 62 g/ha: 10%
  pest or weed control at 125 g/ha: 60%
[3]; post-emergence, Postemergence, scale 0 to 100, read-out: Plant response rating, Velvetleaf
  pest or weed control at 250 g/ha: 60%
[3]; [16]
  pest or weed control at 31 g/ha: 0%
  pest or weed control at 62 g/ha: 10%
[3]; [17]
  pest or weed control at 125 g/ha: 15%
  pest or weed control at 250 g/ha: 50%
[4]; post-emergence, Postemergence, read-out: Plant response rating (scale of 0 to 100), Goosegrass
  pest or weed control at 31 g/ha: 0%
[4]; [18]
  pest or weed control at 62 g/ha: 0%
  pest or weed control at 125 g/ha: 0%
[4]; post-emergence, Postemergence, scale 0 to 100, read-out: Plant response rating, Goosegrass
  pest or weed control at 250 g/ha: 0%
[4]; [19]
  pest or weed control at 31 g/ha: 0%
  pest or weed control at 62 g/ha: 30%
[4]; [20]
  pest or weed control at 125 g/ha: 35%
  pest or weed control at 250 g/ha: 50%
[5]; post-emergence, Postemergence, read-out: Plant response rating (scale of 0 to 100), Ragweed
  pest or weed control at 31 g/ha: 60%
[5]; [21]
  pest or weed control at 62 g/ha: 80%
  pest or weed control at 125 g/ha: 85%
[5]; post-emergence, Postemergence, scale 0 to 100, read-out: Plant response rating, Ragweed
  pest or weed control at 250 g/ha: 90%
[5]; [22]
  pest or weed control at 31 g/ha: 30%
  pest or weed control at 62 g/ha: 85%
[5]; [23]
  pest or weed control at 125 g/ha: 90%
  pest or weed control at 250 g/ha: 100%
[6]; post-emergence, Postemergence, read-out: Plant response rating (scale of 0 to 100), Cupgrass, Woolly
  pest or weed control at 31 g/ha: 0%
[6]; [24]
  pest or weed control at 62 g/ha: 0%
  pest or weed control at 125 g/ha: 0%
[6]; post-emergence, Postemergence, scale 0 to 100, read-out: Plant response rating, Cupgrass, Woolly
  pest or weed control at 250 g/ha: 40%
[6]; [25]
  pest or weed control at 31 g/ha: 0%
  pest or weed control at 62 g/ha: 5%
[6]; [26]
  pest or weed control at 125 g/ha: 45%
  pest or weed control at 250 g/ha: 50%
[7]; post-emergence, Postemergence, read-out: Plant response rating (scale of 0 to 100), Nutsedge, Yellow
  pest or weed control at 31 g/ha: 0%
[7]; [27]
  pest or weed control at 62 g/ha: 0%
  pest or weed control at 125 g/ha: 0%
[7]; post-emergence, Postemergence, scale 0 to 100, read-out: Plant response rating, Nutsedge, Yellow
  pest or weed control at 250 g/ha: 5%
[7]; [28]
  pest or weed control at 31 g/ha: 0%
  pest or weed control at 62 g/ha: 0%
[7]; [29]
  pest or weed control at 125 g/ha: 0%
  pest or weed control at 250 g/ha: 0%
[8]; 31 g ai/ha, read-out: Plant response rating (scale of 0 to 100), Chickweed
  pest or weed control at 31 g/ha: 40%
[8]; 62 g ai/ha, scale 0 to 100 (0 no effect, 100 complete control), read-out: Chickweed plant response rating
  pest or weed control at 62 g/ha: 50%
[8]; 125 g ai/ha, scale 0 to 100 (0 no effect, 100 complete control), read-out: Chickweed plant response rating
  pest or weed control at 125 g/ha: 65%
[8]; 250 g ai/ha, scale 0 to 100, read-out: Plant response rating, Chickweed
  pest or weed control at 250 g/ha: 85%
